Read-outs that look alike come from different tables or passages of the source.
Legend:
Water solubility test = format: physicochemical; conditions: for Solubility (%): purified water, from amount of water required for dissolution
Method: Each sample compound was weighed in the amount shown in Table 3, to which purified water was added in 0.05 mL aliquots. The solubility (%) of the compound was determined based on the amount of water required for its dissolution.

[1] = Oral absorbability test on rats and/or mice; format: in vivo; conditions: orally administered to mice and/or rats, as in Experiment 3, FIGS. 2 to 6
Method: (§1) The compound of Example 83 and the comparative compound 3 were suspended at 2 mg/mL with a 0.5% MC solution in mortars, respectively, and were orally administered to male SD rats at 10 mg/5 mL/kg. Upon elapsed time of 0.25, 0.5, 1, 2, 4, 6 and 8 hours after the administration, blood samples were collected and then centrifuged to provide plasma samples. The plasma levels of the respective compounds were determined by HPLC. […] The compound of Example 83 is, therefore, useful as an orally dosable medicine.
In a similar manner as in Experiment 3, test compounds of Examples 23, 25, 143, 193, 245, 246, 247, 248 and 249 were orally administered to mice and/or rats to test their oral absorbability.

[2] = tested on: interleukin-1β production; assay: Inhibitory activity against interleukin-1β production (LPS-stimulated HL-60 cells, ELISA); format: cell-based; conditions: lipopolysaccharide 10 μg/mL, 3 days, Table 1, read-out: IL-1β production inhibiting activity IC50
Method: Inhibitory Activity Against Interleukin-1β Production
HL-60 cells were cultured for 4 days until confluence on RPMI 1640 medium with 10% fetal bovine serum (FBS) added thereto. The medium was centrifuged. The supernatant was discarded, and the cells were then suspended at 1×10^6 cells/mL on RPMI 1640 medium with 3% FBS, and lipopolysaccharide was added to give a final concentration of 10 μg/mL. The culture was inoculated at 1 mL/well to a 24-well plate. A sample compound was added at 1 μL/well, followed by culturing for 3 days. Three days later, the amount of interleukin-1β in each culture was determined by ELISA. Each IC50 value was determined by a comparison in yield with a control to which no test sample was added.

[3] = Oral absorbability test on rats; format: in vivo; conditions: male SD rats, oral 10 mg/5 mL/kg, suspension in 0.5% MC, 0.25-8 hours, FIG. 1
Method: as §1

| Solubility (%) (Water solubility test) | Oral absorbability [1] | IC50 ([2]; Homo sapiens, 72 h) [µM] | Compound | further results |
| --- | --- | --- | --- | --- |
| 10 | good absorbability | – | COc1ccc(-c2cc(CN(CCO)CCO)c(=O)n(CC3CC3)n2)cc1F.Cl [Example 23, 4-N,N-bis(2-hydroxyethyl)aminomethyl-2-cyclopropylmethyl-6-(3-fluoro-4-methoxyphenyl)-2H-pyridazin-3-one hydrochloride] | IC50 [2]: 12.3 µM |
| 0.4 | good absorbability | 2.74 | COc1ccc(-c2cc(CN)c(=O)n(CC3CC3)n2)cc1F.Cl [Example 25, 4-aminomethyl-2-cyclopropylmethyl-6-(3-fluoro-4-methoxyphenyl)-2H-pyridazin-3-one hydrochloride] | – |
| 4 | – | 6.21 | Cc1ccc(-c2cc(CN(C)C)c(=O)n(CC(C)C)n2)cc1.Cl [Example 45, 4-dimethylaminomethyl-2-isobutyl-6-(4-methylphenyl)-2H-pyridazin-3-one hydrochloride] | – |
| >20 | – | 5.2 | CCN(CC)Cc1cc(-c2ccc(C)cc2)nn(CC(C)C)c1=O.Cl [Example 47, 4-diethylaminomethyl-2-isobutyl-6-(4-methylphenyl)-2H-pyridazin-3-one hydrochloride] | – |
| – | – | 0.27 | Cc1cc(-c2cc(CN3CCN(C)CC3)c(=O)n(CC(C)C)n2)ccc1F.Cl.Cl [Example 83, 6-(4-fluoro-3-methylphenyl)-2-isobutyl-4-(4-methyl-1-piperazinyl)methyl-2H-pyridazin-3-one dihydrochloride] | Oral absorption (plasma level by HPLC) [3]: good absorption |
| >20 | – | 5.5 | Cc1cc(-c2cc(CN(C)C)c(=O)n(CC(C)C)n2)ccc1F.Cl [Example 89, 4-dimethylaminomethyl-6-(4-fluoro-3-methylphenyl)-2-isobutyl-2H-pyridazin-3-one hydrochloride] | – |
| >20 | – | – | CC(C)Cn1nc(-c2ccc(F)c(F)c2)cc(CN(CCO)CCO)c1=O.Cl [Example 108, 4-N,N-bis(2-hydroxyethyl)aminomethyl-6-(3,4-difluorophenyl)-2-isobutyl-2H-pyridazin-3-one hydrochloride] | IC50 [2]: 3.44 µM |
| 10 | good absorbability | 8.55 | Cc1cc(-c2cc(CN3CCN(C)CC3)c(=O)n(CC=Cc3ccc(Cl)cc3)n2)ccc1F.Cl.Cl [Example 143, 2-(4-chlorocinnamyl)-6-(4-fluoro-3-methylphenyl)-4-(4-methyl-1-piperazinyl)methyl-2H-pyridazin-3-one dihydrochloride] | melting point: 229.7 to 243.3 °C (dec.) |
| >10 | – | 1.63 | CSc1ccc(-c2cc(CN3CCN(C)CC3)c(=O)n(CC3CC3)n2)cc1.Cl.Cl [Example 149, 2-cyclopropylmethyl-4-(4-methyl-1-piperazinyl)methyl-6-[4-(methylthio)phenyl]-2H-pyridazin-3-one dihydrochloride] | melting point: 234.6 to 239.2 °C |
| 5 | good absorbability | – | COc1ccc(-c2cc(CN3CCNCC3)c(=O)n(Cc3ccc(F)cc3)n2)cc1F.Cl.Cl [Example 193, 2-(4-fluorobenzyl)-6-(3-fluoro-4-methoxyphenyl)-4-(1-piperazinyl)methyl-2H-pyridazin-3-one dihydrochloride] | – |
| 10 | good absorbability | – | COc1ccc(-c2cc(CN3CCN(C)CC3)c(=O)n(Cc3ccc(F)c(F)c3)n2)cc1F.Cl.Cl [Example 245, 2-(3,4-difluorobenzyl)-6-(3-fluoro-4-methoxyphenyl)-4-(4-methyl-1-piperazinyl)methyl-2H-pyridazin-3-one dihydrochloride] | – |
| 2 | good absorbability | – | COc1ccc(-c2cc(CN(C)C)c(=O)n(Cc3ccc(F)c(F)c3)n2)cc1F.Cl [Example 246, 2-(3,4-difluorobenzyl)-4-dimethylaminomethyl-6-(3-fluoro-4-methoxyphenyl)-2H-pyridazin-3-one hydrochloride] | – |
| 10 | good absorbability | – | Cc1cc(-c2cc(CN3CCN(C)CC3)c(=O)n(CCCc3ccc(Cl)cc3)n2)ccc1F.Cl.Cl [Example 247, 2-[3-(4-chlorophenyl)propyl]-6-(4-fluoro-3-methylphenyl)-4-(4-methyl-1-piperazinyl)methyl-2H-pyridazin-3-one dihydrochloride] | – |
| 0.06 | good absorbability | – | COc1ccc(-c2cc(CN3CCN(C)CC3)c(=O)n(CC=Cc3ccc(Cl)cc3)n2)cc1F.Cl.Cl [Example 248, 2-(4-chlorocinnamyl)-6-(3-fluoro-4-methoxyphenyl)-4-(4-methyl-1-piperazinyl)methyl-2H-pyridazin-3-one dihydrochloride] | – |
| 0.03 | good absorbability | – | COc1ccc(-c2cc(CN3CCN(CCO)CC3)c(=O)n(CC=Cc3ccc(Cl)cc3)n2)cc1F.Cl.Cl [Example 249, 2-(4-chlorocinnamyl)-6-(3-fluoro-4-methoxyphenyl)-4-[4-(2-hydroxyethyl)-1-piperazinyl]methyl-2H-pyridazin-3-one dihydrochloride] | – |
| <0.001 | – | – | CNC(=O)c1cc(-c2ccc(OC)c(F)c2)nn(CC2CC2)c1=O [compound 3, reference compound] | Oral absorption (plasma level by HPLC) [3]: no substantial absorption; Dissolution in amount of added water (Water solubility test; 100 mL purified water added): (insoluble) |

Reference: US6861428B2, “Water-soluble phenylpyridazine compounds and compositions containing the same” (Kowa Co., Ltd., priority 2001, dated 2005)
